According to patent publication US20260262643A1, “HERBICIDAL BENZOXAZINES” (FMC CORPORATION, priority 2022, published 2026):

Columns and labels:
[1] = system: barnyardgrass; experiment: Test C preemergence; type: in vivo, Echinochloa crusgalli; conditions: 0 to 100 scale (0 no effect, 100 complete control)
Summary of the method: (§1)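 Seeds in loam–sand blend received preemergence directed soil spray of test chemicals in non-phytotoxic solvent with surfactant; postemergence treatment was applied at one- to two-leaf stage (2–10 cm). After 10 days in greenhouse, injury rated visually versus untreated controls, 0 (no effect) to 100 (complete control).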

[2] = system: blackgrass; experiment: Test C preemergence; type: in vivo, Alopecurus myosuroides; conditions: 0 to 100 scale (0 no effect, 100 complete control)
Summary of the method: as §1

[3] = system: corn; experiment: Test C preemergence; type: in vivo, Zea mays; conditions: 0 to 100 scale (0 no effect, 100 complete control)
Summary of the method: as §1

[4] = system: green foxtail; experiment: Test C preemergence; type: in vivo, Setaria viridis; conditions: 0 to 100 scale (0 no effect, 100 complete control)
Summary of the method: as §1

[5] = system: kochia; experiment: Test C preemergence; type: in vivo, Bassia scoparia; conditions: 0 to 100 scale (0 no effect, 100 complete control)
Summary of the method: as §1

[6] = system: oat, wild; experiment: Test C preemergence; type: in vivo, Avena fatua; conditions: 0 to 100 scale (0 no effect, 100 complete control)
Summary of the method: as §1

[7] = system: pigweed, palmer; experiment: Test C preemergence; type: in vivo, Amaranthus palmeri; conditions: 0 to 100 scale (0 no effect, 100 complete control)
Summary of the method: as §1

[8] = system: ragweed; experiment: Test C preemergence; type: in vivo, Ambrosia artemisiifolia; conditions: 0 to 100 scale (0 no effect, 100 complete control)
Summary of the method: as §1

[9] = system: ryegrass, Italian; experiment: Test C preemergence; type: in vivo, Lolium multiflorum; conditions: 0 to 100 scale (0 no effect, 100 complete control)
Summary of the method: as §1

[10] = system: soybean; experiment: Test C preemergence; type: in vivo, Glycine max; conditions: 0 to 100 scale (0 no effect, 100 complete control)
Summary of the method: as §1

[11] = system: wheat; experiment: Test C preemergence; type: in vivo, Triticum aestivum; conditions: 0 to 100 scale (0 no effect, 100 complete control)
Summary of the method: as §1

[12] = system: barnyardgrass; experiment: Test C postemergence; type: in vivo, Echinochloa crusgalli; conditions: 10 days
Summary of the method: as §1

[13] = system: blackgrass; experiment: Test C postemergence; type: in vivo, Alopecurus myosuroides; conditions: 10 days
Summary of the method: as §1

[14] = system: corn; experiment: Test C postemergence; type: in vivo, Zea mays; conditions: 10 days
Summary of the method: as §1

[15] = system: green foxtail; experiment: Test C postemergence; type: in vivo, Setaria viridis; conditions: 10 days
Summary of the method: as §1

[16] = system: kochia; experiment: Test C postemergence; type: in vivo, Bassia scoparia; conditions: 10 days
Summary of the method: as §1

[17] = system: oat, wild; experiment: Test C postemergence; type: in vivo, Avena fatua; conditions: 10 days
Summary of the method: as §1

[18] = system: pigweed, palmer; experiment: Test C postemergence; type: in vivo, Amaranthus palmeri; conditions: 10 days
Summary of the method: as §1

[19] = system: ragweed; experiment: Test C postemergence; type: in vivo, Ambrosia artemisiifolia; conditions: 10 days
Summary of the method: as §1

[20] = system: ryegrass, Italian; experiment: Test C postemergence; type: in vivo, Lolium multiflorum; conditions: 10 days
Summary of the method: as §1

[21] = system: soybean; experiment: Test C postemergence; type: in vivo, Glycine max; conditions: 10 days
Summary of the method: as §1

[22] = system: wheat; experiment: Test C postemergence; type: in vivo, Triticum aestivum; conditions: 10 days
Summary of the method: as §1

[23] = system: galium; experiment: Test C postemergence; type: in vivo, Galium aparine; conditions: 10 days
Summary of the method: as §1

[24] = system: horseweed; experiment: Test C postemergence; type: in vivo, Erigeron canadensis; conditions: 10 days
Summary of the method: as §1

[25] = system: barnyardgrass; experiment: Test D flooded paddy test; type: in vivo, Echinochloa crus-galli; conditions: 250 g ai/ha, applied to paddy water, visual rating after 13 to 14 days, scale 0 to 100 (0 no effect, 100 complete control)
Summary of the method: (§2)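 2-leaf plants; flood 3 cm above soil; compound dosed into paddy water; greenhouse 13–14 d; visual rating vs controls, 0–100 (100 = complete control); dash = not tested.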

[26] = system: ducksalad; experiment: Test D flooded paddy test; type: in vivo, Heteranthera limosa; conditions: 250 g ai/ha, applied to paddy water, visual rating after 13 to 14 days, scale 0 to 100 (0 no effect, 100 complete control)
Summary of the method: as §2

[27] = system: rice; experiment: Test D flooded paddy test; type: in vivo, Oryza sativa; conditions: 250 g ai/ha, applied to paddy water, visual rating after 13 to 14 days, scale 0 to 100 (0 no effect, 100 complete control)
Summary of the method: as §2

[28] = system: sedge, umbrella; experiment: Test D flooded paddy test; type: in vivo, Cyperus difformis; conditions: 250 g ai/ha, applied to paddy water, visual rating after 13 to 14 days, scale 0 to 100 (0 no effect, 100 complete control)
Summary of the method: as §2

[29] = Preemergence, 500 g ai/ha, visual rating after 10 days
[30] = Test C, preemergence, 125 g ai/ha
[31] = 125 g ai/ha, postemergence, 0 to 100 scale, 0 no effect, 100 complete control
[32] = Postemergence, 500 g ai/ha, visual 0 to 100 scale (0 no effect, 100 complete control)

Structure (SMILES): C[C@H]1CN(C(=O)c2cc(-n3cnc(C(C)(C)C)n3)cc3c2OCCO3)c2cccc(Cl)c2O1 [Compound 154]
- Barnyardgrass plant response rating ([1]; 125 g ai/ha, preemergence): 70
- Plant response rating, Barnyardgrass [1, 29]: 100
- Plant response rating, Blackgrass [2, 29]: 60
- Blackgrass plant response rating [2, 30]: 20
- Plant response rating, Corn [3, 29]: 30
- Corn plant response rating [3, 30]: 0
- Plant response rating, Foxtail, Green [4, 29]: 100
- Foxtail, Green plant response rating [4, 30]: 100
- Plant response rating, Kochia [5, 29]: 100
- Kochia plant response rating [5, 30]: 100
- Plant response rating, Oat, Wild [6, 29]: 30
- Oat, Wild plant response rating [6, 30]: 20
- Plant response rating, Pigweed, Palmer [7, 29]: 100
- Pigweed, Palmer plant response rating [7, 30]: 100
- Plant response rating, Ragweed [8, 29]: 100
- Ragweed plant response rating [8, 30]: 50
- Plant response rating, Ryegrass, Italian [9, 29]: 90
- Ryegrass, Italian plant response rating [9, 30]: 70
- Plant response rating, Soybean [10, 29]: 100
- Soybean plant response rating [10, 30]: 40
- Plant response rating, Wheat [11, 29]: 60
- Wheat plant response rating [11, 30]: 10
- Plant response rating, Barnyardgrass [12, 31]: 20
- Plant response rating, Barnyardgrass [12, 32]: 50
- Plant response rating, Blackgrass [13, 31]: 20
- Plant response rating, Blackgrass [13, 32]: 90
- Plant response rating, Corn [14, 31]: 20
- Plant response rating, Corn [14, 32]: 50
- Plant response rating, Foxtail, Green [15, 31]: 40
- Plant response rating, Foxtail, Green [15, 32]: 90
- Plant response rating, Kochia [16, 31]: 100
- Plant response rating, Kochia [16, 32]: 100
- Plant response rating, Oat, Wild [17, 31]: 10
- Plant response rating, Oat, Wild [17, 32]: 20
- Plant response rating, Pigweed, Palmer [18, 31]: 90
- Plant response rating, Pigweed, Palmer [18, 32]: 100
- Plant response rating, Ragweed [19, 31]: 100
- Plant response rating, Ragweed [19, 32]: 100
- Plant response rating, Ryegrass, Italian [20, 31]: 30
- Plant response rating, Ryegrass, Italian [20, 32]: 70
- Plant response rating, Soybean [21, 31]: 90
- Plant response rating, Soybean [21, 32]: 100
- Plant response rating, Wheat [22, 31]: 10
- Plant response rating, Wheat [22, 32]: 30
- Plant response rating, Galium [23, 31]: 100
- Plant response rating, Galium [23, 32]: 100
- Plant response rating, Horseweed [24, 31]: 80
- Plant response rating, Horseweed [24, 32]: 70
- Plant response rating, Barnyardgrass (Flood) [25]: 15
- Plant response rating, Ducksalad (Flood) [26]: 10
- Plant response rating, Rice (Flood) [27]: 10
- Plant response rating, Sedge, Umbrella (Flood) [28]: 70
